Measurements published in ChEMBL document CHEMBL5465560, “Selectivity Literature for EUbOPEN Chemogenomic Library” (2024).
One block for each molecule: values may come before it.

Key:
[1] = target: Bone morphogenetic protein receptor type-1B (Homo sapiens, UniProt O00238); experiment: Selectivity interaction (Ambit KINOMEscan and KiNATiv profiling in Jurkat cells) EUB0000090b BMPR1B; assay type: cell-based; conditions: at 1 µM
[2] = target: T1, Ribosomal protein S6 kinase delta-1 (Homo sapiens) (UniProt Q96S38); experiment: Selectivity interaction (ActivX KiNativ screen (kinase selectivity in THP-1 cell lysates)) EUB0000639a RPS6KC1; assay type: subcellular; conditions: lysate
T1 sequence (whole entry): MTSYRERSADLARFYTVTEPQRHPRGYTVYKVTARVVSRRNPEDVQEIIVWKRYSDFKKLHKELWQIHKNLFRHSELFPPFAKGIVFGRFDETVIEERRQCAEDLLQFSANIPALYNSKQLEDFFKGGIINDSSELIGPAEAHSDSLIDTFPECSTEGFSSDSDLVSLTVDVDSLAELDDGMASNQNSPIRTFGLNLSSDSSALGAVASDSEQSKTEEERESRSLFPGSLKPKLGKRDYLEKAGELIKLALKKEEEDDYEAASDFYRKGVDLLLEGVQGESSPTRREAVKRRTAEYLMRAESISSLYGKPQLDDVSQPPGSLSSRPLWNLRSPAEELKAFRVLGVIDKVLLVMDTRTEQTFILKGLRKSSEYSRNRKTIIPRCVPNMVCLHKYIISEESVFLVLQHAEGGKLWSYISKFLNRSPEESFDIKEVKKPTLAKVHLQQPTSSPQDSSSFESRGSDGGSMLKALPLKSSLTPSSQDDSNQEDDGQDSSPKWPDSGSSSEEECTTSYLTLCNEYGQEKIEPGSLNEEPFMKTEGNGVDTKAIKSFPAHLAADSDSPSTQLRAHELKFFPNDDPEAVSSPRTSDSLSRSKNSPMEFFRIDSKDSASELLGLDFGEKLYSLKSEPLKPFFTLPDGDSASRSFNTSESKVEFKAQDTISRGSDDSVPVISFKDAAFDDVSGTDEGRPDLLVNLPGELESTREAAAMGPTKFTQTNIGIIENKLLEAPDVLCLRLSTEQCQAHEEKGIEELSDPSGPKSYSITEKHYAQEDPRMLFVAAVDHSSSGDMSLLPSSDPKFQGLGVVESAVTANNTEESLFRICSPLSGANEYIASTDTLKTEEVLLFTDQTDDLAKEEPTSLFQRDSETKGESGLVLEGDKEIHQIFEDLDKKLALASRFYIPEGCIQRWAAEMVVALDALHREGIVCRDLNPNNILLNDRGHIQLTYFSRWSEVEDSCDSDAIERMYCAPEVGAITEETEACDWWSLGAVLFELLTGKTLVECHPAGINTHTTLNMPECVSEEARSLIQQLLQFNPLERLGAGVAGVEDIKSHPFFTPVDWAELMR

[3] = target: T2, Phosphatidylinositol 3-kinase C2 domain-containing subunit gamma (Homo sapiens) (UniProt O75747); experiment: Selectivity interaction (KinomeScan (DiscoverX)) EUB0000666a PIK3C2G; conditions: at 10 µM
T2 sequence (whole entry): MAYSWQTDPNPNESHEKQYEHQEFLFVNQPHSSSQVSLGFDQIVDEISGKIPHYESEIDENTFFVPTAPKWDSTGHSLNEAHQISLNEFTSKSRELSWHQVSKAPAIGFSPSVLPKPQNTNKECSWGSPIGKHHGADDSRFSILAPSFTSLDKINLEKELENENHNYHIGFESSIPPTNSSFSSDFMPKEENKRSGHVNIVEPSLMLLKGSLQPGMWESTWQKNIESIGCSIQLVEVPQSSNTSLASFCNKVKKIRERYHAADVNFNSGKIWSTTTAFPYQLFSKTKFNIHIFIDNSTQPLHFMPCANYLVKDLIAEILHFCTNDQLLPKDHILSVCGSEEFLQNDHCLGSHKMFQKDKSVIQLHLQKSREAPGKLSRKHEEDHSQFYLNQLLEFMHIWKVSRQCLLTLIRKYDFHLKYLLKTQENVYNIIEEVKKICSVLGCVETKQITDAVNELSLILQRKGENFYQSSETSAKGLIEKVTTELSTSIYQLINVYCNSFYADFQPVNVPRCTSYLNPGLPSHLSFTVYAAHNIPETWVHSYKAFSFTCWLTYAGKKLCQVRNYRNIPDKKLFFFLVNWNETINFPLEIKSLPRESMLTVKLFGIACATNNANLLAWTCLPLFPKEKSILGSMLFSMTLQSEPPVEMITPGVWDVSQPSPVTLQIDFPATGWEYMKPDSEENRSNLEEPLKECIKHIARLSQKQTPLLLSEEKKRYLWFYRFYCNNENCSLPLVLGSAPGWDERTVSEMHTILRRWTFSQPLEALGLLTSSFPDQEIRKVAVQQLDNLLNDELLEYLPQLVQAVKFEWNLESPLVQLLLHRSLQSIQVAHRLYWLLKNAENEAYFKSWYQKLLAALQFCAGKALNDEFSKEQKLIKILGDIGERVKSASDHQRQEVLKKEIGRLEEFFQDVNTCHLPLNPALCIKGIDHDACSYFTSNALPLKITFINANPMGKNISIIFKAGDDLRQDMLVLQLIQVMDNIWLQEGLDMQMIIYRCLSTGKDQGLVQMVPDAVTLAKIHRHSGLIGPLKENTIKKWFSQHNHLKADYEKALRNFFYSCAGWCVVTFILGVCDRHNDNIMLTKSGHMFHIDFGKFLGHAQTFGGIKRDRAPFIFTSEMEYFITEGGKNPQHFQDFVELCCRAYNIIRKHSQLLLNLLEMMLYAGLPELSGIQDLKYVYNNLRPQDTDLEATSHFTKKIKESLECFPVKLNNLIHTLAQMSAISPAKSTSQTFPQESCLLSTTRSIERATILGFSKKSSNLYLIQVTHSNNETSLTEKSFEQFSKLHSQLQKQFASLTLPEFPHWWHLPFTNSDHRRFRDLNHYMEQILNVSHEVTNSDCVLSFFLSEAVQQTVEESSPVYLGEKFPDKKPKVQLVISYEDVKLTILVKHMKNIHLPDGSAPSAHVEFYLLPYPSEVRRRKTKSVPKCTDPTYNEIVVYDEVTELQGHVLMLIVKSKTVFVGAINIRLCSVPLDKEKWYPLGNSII

Chain of Bone morphogenetic protein receptor type-1B (O00238 whole entry): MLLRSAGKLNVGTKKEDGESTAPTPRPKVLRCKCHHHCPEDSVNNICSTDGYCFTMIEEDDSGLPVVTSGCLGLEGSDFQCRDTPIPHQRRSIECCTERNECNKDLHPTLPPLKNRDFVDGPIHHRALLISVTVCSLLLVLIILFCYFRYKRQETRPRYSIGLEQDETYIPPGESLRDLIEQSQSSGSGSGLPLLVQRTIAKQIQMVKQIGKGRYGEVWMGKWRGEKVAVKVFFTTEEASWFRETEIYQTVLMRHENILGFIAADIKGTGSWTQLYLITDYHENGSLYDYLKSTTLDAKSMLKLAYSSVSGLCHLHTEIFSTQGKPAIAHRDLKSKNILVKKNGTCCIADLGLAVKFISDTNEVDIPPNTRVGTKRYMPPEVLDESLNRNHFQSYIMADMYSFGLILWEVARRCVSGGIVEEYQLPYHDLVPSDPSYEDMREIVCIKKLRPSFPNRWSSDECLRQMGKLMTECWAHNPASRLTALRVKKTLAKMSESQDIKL

Structure (SMILES): CN(C)C/C=C/C(=O)Nc1ccc(C(=O)N2CCCC(Nc3ncc(Cl)c(-c4c[nH]c5ccccc45)n3)C2)cc1 (configuration not stated)
% of control [1]: 91%

% of inhibition ([2]; at 0.01 µM): 11.8%
% of inhibition ([2]; at 0.04 µM): -10.9%
% of inhibition ([2]; at 0.2 µM): -1.8%
% of inhibition ([2]; at 1 µM): 9.6%
% of inhibition ([2]; at 5 µM): 8.3%
Structure (SMILES): CC[C@@H]1[C@H](F)C(=O)N[C@@H]1COc1nccc2cc(C(N)=O)c(OC)cc12 [ZIMLOVISERTIB]

Structure (SMILES): O=C(NOC[C@H](O)CO)c1ccc(F)c(F)c1Nc1ccc(I)cc1F
% of control [3]: 48%
